Data on 6 molecules can be found in patent US5202350A, “Furanone anti-inflammatory agents” (Bristol-Myers Squibb Co., priority 1991, dated 1993).

pIC50: −log10 of the molar value. A value given as a limit tells only on which side of the number the result lay.

Assay [1] addresses T1, human platelet phospholipase A2 (Homo sapiens, UniProt P14555).
T1 construct: The enzyme was isolated from human platelets; from tissue; host or cells: human platelets
T1 sequence (P14555 21-144): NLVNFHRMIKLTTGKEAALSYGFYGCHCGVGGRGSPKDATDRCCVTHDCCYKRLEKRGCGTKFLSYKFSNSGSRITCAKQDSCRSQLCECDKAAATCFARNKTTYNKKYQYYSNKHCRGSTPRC
The assay can be described thus: PLA2 Inhibition Assay (14C-oleate labeled E. coli membrane substrate). In kind it is biochemical. The note with it: human platelet PLA2, pH 7, 37° C., 7 min preincubation, 30 min incubation. The protocol:
The utility of the compounds of the instant invention is shown by their inhibitory activity toward human platelet phospholipase A2 and their in vivo anti-inflammatory activity. The activity against human platelet phospholipase A2 was determined as described below:
The method used is similar to that reported by Franson, et al. [Jesse R. L. and Franson R. C., Biochim Biophys Acta 575:467-470 (1979), Franson R. C., Patriarca P., and Elsback P., J Lipid Res 15:380-388 (1974)]. The enzyme was isolated from human platelets. The substrate used consisted of ^14 C-oleate labeled Escherichia coli membranes. E. coli cells were grown in the presence of ^14 C-oleic acid and then autoclaved to prepare the membranes.
Various concentrations of test compounds are preincubated with PLA2 (3.6 μg/ml in a buffer consisting of 25 mM HEPES (pH 7), 150 mM NaCl, 5.0 mM CaCl2, and 10% DMSO (v/v, test compound solvent) at 37° C. for 7 minutes. The E. coli membrane substrate is then added (0.1 mM phospholipid, 0.005 μCi ^14 C) and the reaction is then incubated at 37° C. for 30 minutes. The reaction is terminated by the addition of 1.9 ml tetrahydrofuran (THF), and the entire solution is applied to a solid-phase extraction column (aminopropyl resin, Analytichem). The column is rinsed with an additional 1 ml of THF. The free fatty acid product of the reaction is then eluted from the column with 1 ml of 2% acetic acid (v/v) in THF and collected in a scintillation vial. The amount of free fatty acid product is determined by liquid scintillation counting. The amount of inhibition produced by the test compound is calculated by comparing the counts obtained in the presence of the compound to those obtained in its absence (solvent only). Background counts were determined by performing incubations in the absence of enzyme.
Percent inhibition is determined by the equation: [formula]
IC50 values (the concentration of inhibitor required to produce 50% inhibition) were determined by linear regression analysis of a plot of % inhibition versus log test compound concentration.

The next assay concerns ears of CD-1 mice. The assay is described as follows: Inhibition of Phorbol-Ester-Induced inflammation (TPA ear edema). In kind it is in vivo. The note with it: topical, six hours. An excerpt: The method used is similar to that reported by Young, et al. [Young J. M., Wagner B. M., Spires D. A., J Invest Dermatol, 80:48-52(1983); DeYound L. M., Kheifets J. B., Ballaron S. J., Young J. M., Agents Actions 26:335-341 (1989)]. An inflammatory reaction is induced by the topical application of 0.01% (w/v) […] (TPA) to the ears of CD-1 mice. An acute inflammatory reaction is produced, resulting in ear edema. TPA, with and without various concentrations of test compound, was applied to the inner and outer aspects of the ear surface (10 μl/surface). After six hours, the mice were sacrificed and the ears removed. Ear tissue punches (5/16") were taken from each ear and weighed to measure edema.
The anti-inflammatory activity of the test compounds was determined by comparing the edema produced by TPA without test compound to that produced in its presence.
Percent inhibition values were determined by the equation: [formula]

Consider `O=C1OC(O)CC1CCCCCCCc1ccccc1` (centres unmarked) [Example 9], for which, in assay [1], the pIC50 (commonly the IC50 on a negative log10 scale, so that one unit is a factor of ten) was 3.42. In assay [1], `CCCCCCCCCCC1CC(O)OC1=O` (centres unmarked) [Example 3, 3-n-Decyl-5-Hydroxy-3,4-Dihydro-Furan-2-One] showed a pIC50 of 3.28. For `CCCCCC1CC(O)OC1=O` (centres unmarked) [Example 11, 3-n-Amyl-5-Hydroxy-3,4-Dihyro-Furan-2-One], the pIC50 in assay [1] was < 3.30. As for `CCCCCCCCCCCCCCCCC1CC(O)OC1=O` (centres unmarked) [Example 13, 3-n-Hexadecyl-5-Hydroxy-3,4-Dihydro-Furan-2-One], the “% Inhibition of Ear Edema” value with ears of CD-1 mice (dose 2.5% (w/v)) is on record as 6.8%; in the assay with ears of CD-1 mice (dose 5.0% (w/v)), 24.6%; with ears of CD-1 mice (dose 7.5% (w/v)), 33.5%; with ears of CD-1 mice (dose 10% (w/v)), 45%. The molecule also showed a pIC50 in assay [1] of 4.23. For the molecule `CCCCCCCCCCCC1CC(O)OC1=O` (centres unmarked) [Example 5, 3-n-Undecyl-5-Hydroxy-3,4-Dihydro-Furan-2-One], the “% Inhibition of Ear Edema” value with ears of CD-1 mice (dose 2.6% (w/v)) is on record as 34.6%. The molecule further gave a pIC50 in assay [1] of 4.77. In turn, `CCCCCCCCCCCCC1CC(O)OC1=O` (centres unmarked) [Example 7, 3-n-Dodecyl-5-Hydroxy-3,4-Dihydro-Furan-2-One] gave a pIC50 in assay [1] of 4.74.
